Experimental data: patent publication US20240218022A1, “ANTI-VISTA MACROCYCLIC PEPTIDES AND COMPOSITIONS” (BRISTOL-MYERS SQUIBB COMPANY, priority 2022, published 2024)
Read-outs that look alike come from different tables or passages of the source. Starred links: 1 amine or outer side, 2 acyl side, 3 side chain; linkers in the order of their positions; H or OH if unused. Positions of bridges follow the written chain, without caps; N, C: chain ends. Non-standard residues stand in square brackets, D forms with d. Residues, ends and D or L forms follow the SMILES beside them. ξ: configuration not given here. Phe(3-CF3) = N[C@@H](Cc1cccc(C(F)(F)F)c1)C(=O)O; Phe(4-CONH2) = NC(=O)c1ccc(C[C@H](N)C(=O)O)cc1; Phe(3-Me) = Cc1cccc(C[C@H](N)C(=O)O)c1; γGlu = O=C(O)[C@H](CCC(=O)[*:2])N[*:1]; 2Nal = N[C@@H](Cc1ccc2ccccc2c1)C(=O)O; βAsp = O=C(O)[C@H](CC(=O)[*:2])N[*:1]; Phe(2-Me) = Cc1ccccc1C[C@H](N)C(=O)O; NMeIle(3ξ) = CCC(C)[C@H](NC)C(=O)O; Tic = O=C(O)[C@@H]1Cc2ccccc2CN1; Ahp(2) = CCCCC[C@H](N)C(=O)O; NMeNle = CCCC[C@H](NC)C(=O)O; Tle = CC(C)(C)[C@H](N)C(=O)O; NHexGly = CCCCCCNCC(=O)O; Nle = CCCC[C@H](N)C(=O)O; Orn = NCCC[C@H](N)C(=O)O; Aun = NCCCCCCCCCCC(=O)O; AEEA = NCCOCCOCC(=O)O

Molecular target: T1, mouse VISTA (mVISTA) (Mus musculus, UniProt Q9D659)
T1 construct: expressed in transfected cells; host or cells: Human embryonic kidney 293T cells
T1 sequence (Q9D659 33-308): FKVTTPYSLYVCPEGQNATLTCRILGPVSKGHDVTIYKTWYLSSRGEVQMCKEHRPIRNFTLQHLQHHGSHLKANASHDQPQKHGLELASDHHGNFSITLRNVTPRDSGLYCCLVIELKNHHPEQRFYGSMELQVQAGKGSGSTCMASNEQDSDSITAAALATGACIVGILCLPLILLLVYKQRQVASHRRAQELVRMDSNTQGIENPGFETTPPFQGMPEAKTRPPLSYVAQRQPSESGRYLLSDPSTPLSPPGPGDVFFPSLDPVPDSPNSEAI
Assay: Cell-Based Binding High-Content Assay For mVISTA (HC CBA mVISTA)
Procedure, shortened: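 This high-content binding assay uses HEK293T cells expressing murine VISTA, measuring displacement of 2 nM biotinylated peptide by fluorescent streptavidin imaging. IC50 values come from four-parameter logistic fitting.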

[1] = cell-based binding high-content assay, mVISTA, the 16th table, read-out: HC CBA mVISTA IC50

| Structure (SMILES) | IC50 (read-out: HC CBA mVISTA IC50) [nM] | other results |
| --- | --- | --- |
| CCCCCCN1CC(=O)N[C@@H](Cc2ccc(O)cc2)C(=O)N[C@@H](CCCC)C(=O)N[C@@H](CC(N)=O)C(=O)N[C@@H](CCCNC(=N)N)C(=O)N(C)[C@@H](C(C)CC)C(=O)N[C@@H](CCCCC)C(=O)N2CCC[C@H]2C(=O)N[C@@H](C(C)C)C(=O)N[C@@H](CC(=O)O)C(=O)N[C@H](C(=O)NCC(=O)O)CSCC(=O)N[C@@H](Cc2ccccc2)C(=O)N[C@@H](Cc2c[nH]c3ccccc23)C(=O)N[C@@H](CC(=O)O)C1=O (some centres unmarked) [Example 1367] ({CH2CO}-FWD[NHexGly]Y[Nle]NR[NMeIle(3ξ)][Ahp(2)]PVDCG-OH; thioether N-14) | 11.1 | – |
| CCCCCCN1CC(=O)N[C@@H](Cc2ccc(O)cc2)C(=O)N[C@@H](CCCC)C(=O)N[C@@H](CC(N)=O)C(=O)N[C@@H](CCCNC(=N)N)C(=O)N(C)[C@@H](CCCC)C(=O)N[C@@H](CCCCC)C(=O)N2CCC[C@H]2C(=O)N[C@@H](C(C)(C)C)C(=O)N[C@@H](CO)C(=O)N[C@H](C(=O)NCC(=O)N[C@@H](CC(=O)NCCOCCOCC(=O)NCCCCCCCCCCC(=O)O)C(=O)O)CSCC(=O)N[C@@H](Cc2ccccc2)C(=O)N[C@@H](Cc2cccc(C)c2)C(=O)N[C@@H](CC(=O)O)C1=O [Example 2327] ({CH2CO}-F[Phe(3-Me)]D[NHexGly]Y[Nle]NR[NMeNle][Ahp(2)]P[Tle]SCG[βAsp][AEEA][Aun]-OH; thioether N-14) | – | IC50 (cell-based binding high-content assay, read-out: HC CBA mVISTA IC50): 33.7 nM |
| CCCCCCN1CC(=O)N[C@@H](Cc2ccc(O)cc2)C(=O)N[C@@H](CC(C)C)C(=O)NCC(=O)N[C@@H](CCCNC(=N)N)C(=O)N[C@@H](CCCCN)C(=O)N[C@@H](CCCCC)C(=O)N2CCC[C@H]2C(=O)N[C@@H](C(C)C)C(=O)N[C@@H](CO)C(=O)N[C@H](C(=O)NCC(=O)O)CSCC(=O)N[C@@H](Cc2ccc3ccccc3c2)C(=O)N[C@@H](Cc2ccc(O)cc2)C(=O)N[C@@H](CC(=O)O)C1=O [Ex 1296] ({CH2CO}-[2Nal]YD[NHexGly]YLGRK[Ahp(2)]PVSCG-OH; thioether N-14) | – | IC50 [1]: 17.3 nM |
| CCCCCCN1CC(=O)N[C@@H](Cc2ccc(O)cc2)C(=O)N[C@@H](CC(C)C)C(=O)N[C@@H](CC(N)=O)C(=O)N[C@@H](CCCNC(=N)N)C(=O)N[C@@H](CC(C)C)C(=O)N[C@@H](CCCCC)C(=O)N2CCC[C@H]2C(=O)N[C@@H](C(C)C)C(=O)N[C@@H](C(C)C)C(=O)N[C@H](C(=O)NCC(=O)NCCOCCOCC(=O)N[C@@H](CC(=O)O)C(=O)NCCOCCOCC(=O)NCCCCCCCCCCC(=O)O)CSCC(=O)N[C@@H](Cc2ccccc2)C(=O)N[C@@H](Cc2cccc(C)c2)C(=O)N[C@@H](CC(=O)O)C1=O [compound 2009] ({CH2CO}-F[Phe(3-Me)]D[NHexGly]YLNRL[Ahp(2)]PVVCG[AEEA]D[AEEA][Aun]-OH; thioether N-14) | – | IC50 (cell-based binding high-content assay, mVISTA, read-out: HC CBA miPr ISTA IC50): 38.9 nM |
| CCCCCCN1CC(=O)N[C@@H](Cc2ccc(O)cc2)C(=O)N[C@@H](CC(C)C)C(=O)N[C@@H](CC(N)=O)C(=O)N[C@@H](CCCN)C(=O)N(C)[C@@H](CCCC)C(=O)N[C@@H](CCCCC)C(=O)N2CCC[C@H]2C(=O)N[C@@H](C(C)(C)C)C(=O)N[C@@H](CO)C(=O)N[C@H](C(=O)N[C@@H](CCC(=O)NCCCCCCCCCCC(=O)O)C(=O)O)CSCC(=O)N[C@@H](Cc2ccccc2)C(=O)N[C@@H](Cc2c[nH]c3ccccc23)C(=O)N[C@@H](CC(=O)O)C1=O [Example 2134] ({CH2CO}-FWD[NHexGly]YLN[Orn][NMeNle][Ahp(2)]P[Tle]SC[γGlu][Aun]-OH; thioether N-14) | 21.7 | – |
| CCCCCCN1CC(=O)N[C@@H](Cc2ccc(O)cc2)C(=O)N[C@@H](CCCC)C(=O)N[C@@H](CC(N)=O)C(=O)N[C@@H](CCCN)C(=O)N(C)[C@@H](CCCC)C(=O)N[C@@H](CCCCC)C(=O)N2CCC[C@H]2C(=O)N[C@@H](C(C)(C)C)C(=O)N[C@@H](CO)C(=O)N[C@H](C(=O)N[C@@H](CC(=O)O)C(N)=O)CSCC(=O)N[C@@H](Cc2ccccc2)C(=O)N[C@@H](Cc2c[nH]c3ccccc23)C(=O)N[C@@H](CC(=O)O)C1=O [Example 1374] ({CH2CO}-FWD[NHexGly]Y[Nle]N[Orn][NMeNle][Ahp(2)]P[Tle]SCD-NH2; thioether N-14) | 24.9 | – |
| CCCCCCN1CC(=O)N[C@@H](Cc2ccc(O)cc2)C(=O)N[C@@H](CCCC)C(=O)N[C@@H](CC(N)=O)C(=O)N[C@@H](CCCNC(=N)N)C(=O)N(C)[C@@H](CCCC)C(=O)N[C@@H](CCCCC)C(=O)N2CCC[C@H]2C(=O)N[C@@H](C(C)C)C(=O)N[C@@H](CC(=O)O)C(=O)N[C@H](C(=O)N[C@@H](CCCN)C(=O)N[C@@H](CCC(N)=O)C(=O)O)CSCC(=O)N[C@@H](Cc2ccc3ccccc3c2)C(=O)N[C@@H](Cc2c[nH]c3ccccc23)C(=O)N[C@@H](CC(=O)O)C1=O [compound 1140] ({CH2CO}-[2Nal]WD[NHexGly]Y[Nle]NR[NMeNle][Ahp(2)]PVDC[Orn]Q-OH; thioether N-14) | 19.1 | – |
| CCCCCCN1CC(=O)N[C@@H](Cc2ccc(O)cc2)C(=O)N[C@@H](CCCC)C(=O)N[C@@H](CC(N)=O)C(=O)N[C@@H](CCCNC(=N)N)C(=O)N(C)[C@@H](CCCC)C(=O)N[C@@H](CCCCC)C(=O)N2CCC[C@H]2C(=O)N[C@@H](C(C)(C)C)C(=O)N[C@@H](CO)C(=O)N[C@H](C(=O)NCCOCCOCC(=O)N[C@@H](CCC(=O)NCCOCCOCC(=O)NCCCCCCCCCCC(=O)O)C(=O)O)CSCC(=O)N[C@@H](Cc2ccc(C(N)=O)cc2)C(=O)N[C@@H](Cc2ccc(O)cc2)C(=O)N[C@@H](CC(=O)O)C1=O [compound 2259] ({CH2CO}-[Phe(4-CONH2)]YD[NHexGly]Y[Nle]NR[NMeNle][Ahp(2)]P[Tle]SC[AEEA][γGlu][AEEA][Aun]-OH; thioether N-14) | 38.1 | – |
| CCCCCCN1CC(=O)N[C@@H](Cc2ccc(O)cc2)C(=O)N[C@@H](CCCC)C(=O)N[C@@H](CC(=O)O)C(=O)N[C@@H](CCCN)C(=O)N(C)[C@@H](CCCC)C(=O)N[C@@H](CCCCC)C(=O)N2CCC[C@H]2C(=O)N[C@@H](C(C)C)C(=O)N[C@@H](CC(=O)O)C(=O)N[C@H](C(=O)N[C@@H](CC(=O)O)C(N)=O)CSCC(=O)N[C@@H](Cc2cccc(C)c2)C(=O)N[C@@H](Cc2ccc(O)cc2)C(=O)N[C@@H](CC(=O)O)C1=O [compound 1449] ({CH2CO}-[Phe(3-Me)]YD[NHexGly]Y[Nle]D[Orn][NMeNle][Ahp(2)]PVDCD-NH2; thioether N-14) | – | IC50 (the 19th table, scaffold drawing 22, read-out: HC CBA mVISTA IC50): 10.8 nM |
| CCCCCCN1CC(=O)N[C@@H](Cc2ccc(O)cc2)C(=O)N[C@@H](CCCC)C(=O)N[C@@H](CC(=O)O)C(=O)N[C@@H](CCCNC(=N)N)C(=O)N[C@@H](CC(C)C)C(=O)N[C@@H](CCCCC)C(=O)N2CCC[C@H]2C(=O)N[C@@H](C(C)C)C(=O)NCC(=O)N[C@H](C(=O)NCC(=O)O)CSCC(=O)N[C@@H](Cc2ccccc2)C(=O)N[C@@H](Cc2ccc(O)cc2)C(=O)N[C@@H](CC(=O)O)C1=O [Example 1024] ({CH2CO}-FYD[NHexGly]Y[Nle]DRL[Ahp(2)]PVGCG-OH; thioether N-14) | – | IC50 (293T cells expressing mouse VISTA, competition with biotinylated peptide (2 nM), read-out: HC CBA mVISTA IC50): 13.6 nM |
| CCCCCCN1CC(=O)N[C@@H](Cc2ccc(O)cc2)C(=O)N[C@@H](CCCC)C(=O)N[C@@H](CC(N)=O)C(=O)N[C@@H](CCCNC(=N)N)C(=O)N2Cc3ccccc3C[C@H]2C(=O)N[C@@H](CCCCC)C(=O)N2CCC[C@H]2C(=O)N[C@@H](C(C)C)C(=O)N[C@@H](CC(=O)O)C(=O)N[C@H](C(=O)NCC(N)=O)CSCC(=O)N[C@@H](Cc2ccc3ccccc3c2)C(=O)N[C@@H](Cc2ccc(O)cc2)C(=O)N[C@@H](CC(=O)O)C1=O [Ex 1307] ({CH2CO}-[2Nal]YD[NHexGly]Y[Nle]NR[Tic][Ahp(2)]PVDCG-NH2; thioether N-14) | – | IC50 [1]: 11.4 nM |
| CCCCCCN1CC(=O)N[C@@H](Cc2ccc(O)cc2)C(=O)N[C@@H](CC(C)C)C(=O)N[C@@H](CC(N)=O)C(=O)N[C@@H](CCCNC(=N)N)C(=O)N(C)[C@@H](CCCC)C(=O)N[C@@H](CCCCC)C(=O)N2CCC[C@H]2C(=O)N[C@@H](C(C)C)C(=O)N[C@@H](CO)C(=O)N[C@H](C(=O)NCC(N)=O)CSCC(=O)N[C@@H](Cc2ccccc2C)C(=O)N[C@@H](Cc2ccc(O)cc2)C(=O)N[C@@H](CC(=O)O)C1=O [compound 1204] ({CH2CO}-[Phe(2-Me)]YD[NHexGly]YLNR[NMeNle][Ahp(2)]PVSCG-NH2; thioether N-14) | 18.4 | – |
| CCCCCCN1CC(=O)N[C@@H](Cc2ccc(O)cc2)C(=O)N[C@@H](CCCC)C(=O)N[C@@H](CC(=O)O)C(=O)N[C@@H](CCCN)C(=O)N[C@@H](CC(C)C)C(=O)N[C@@H](CCCCC)C(=O)N2CCC[C@H]2C(=O)N[C@@H](C(C)C)C(=O)N[C@@H](CC(=O)O)C(=O)N[C@H](C(=O)N[C@@H](CO)C(N)=O)CSCC(=O)N[C@@H](Cc2ccccc2)C(=O)N[C@@H](Cc2c[nH]c3ccccc23)C(=O)N[C@@H](CC(=O)O)C1=O [Example 1365] ({CH2CO}-FWD[NHexGly]Y[Nle]D[Orn]L[Ahp(2)]PVDCS-NH2; thioether N-14) | 7.7 | – |
| CCCCCCN1CC(=O)N[C@@H](Cc2ccc(O)cc2)C(=O)N[C@@H](CC(C)C)C(=O)N[C@@H](CC(N)=O)C(=O)N[C@@H](CCCNC(=N)N)C(=O)N[C@@H](CC(C)C)C(=O)N[C@@H](CCCCC)C(=O)N2CCC[C@H]2C(=O)N[C@@H](C(C)C)C(=O)N[C@@H](C(C)C)C(=O)N[C@H](C(=O)NCC(=O)O)CSCC(=O)N[C@@H](Cc2ccccc2)C(=O)N[C@@H](Cc2cccc(C(F)(F)F)c2)C(=O)N[C@@H](CC(=O)O)C1=O [compound 1333] ({CH2CO}-F[Phe(3-CF3)]D[NHexGly]YLNRL[Ahp(2)]PVVCG-OH; thioether N-14) | 27.6 | – |
